pIC50: −log10 of the molar value.
Key:
Format in all cases: binding
[1] = target: T1, WDR5 (Homo sapiens, UniProt P61964); assay: DSF (Tm shift -4.[…] °C) plus WDR5-MYC peptide HTRF displacement with counter assay; parameters: full-length WDR5 (DSF); N-His, 1–334 (HTRF)
[2] = target: T1, WDR5; assay: DSF (Tm shift -1.[…] °C) plus WDR5-MYC peptide HTRF displacement with counter assay; parameters: full-length WDR5 (DSF); N-His, 1–334 (HTRF)
[3] = target: T1, WDR5; assay: WDR5-MYC peptide HTRF dose response, inactive in counter assay; parameters: N-His, 1–334; with MYC MbIIIb peptide (256–268 a.a.)

SMILES: O=C(c1cc2ccccc2[nH]1)N1CCn2ncc(N3C[C@@H](CO)OC3=O)c2C1 [PC-1]
- pIC50 [1]: 4.45

SMILES: C[C@H]1Cc2noc(N3CCCCC3=O)c2CN1C(=O)c1cc2ccccc2[nH]1 [PC-2]
- pIC50 [2]: 4.56

SMILES: CC1(C)CN(c2cnn3c2CN(C(=O)c2cc4c([nH]2)CCCC4)CC3)C(=O)O1 [PC-3]
- pIC50 [3]: 4.55

From article PMC10958880, “Pocket Crafter: a 3D generative modeling based workflow for the rapid generation of hit molecules in drug discovery” (Journal of Cheminformatics, 2024)
